The values below come from patent US20030125234A1, “Alteration of protein stability” (priority 2001, published 2003).

Common to all, as to assay type: biochemical
The target in one assay is T1, Bovine insulin (Bos taurus, UniProt P01317).
T1 construct: purchased Sigma, St. Louis, Mo., USA
Put plainly: Insulin aggregation (turbidity at 360 nm) induced by DTT. To be noted: Insulin 0.25 mg/mL, 25° C., DTT; compound 100×; standard deviation in parenthesis. Here is the method:
(§1) Bovine insulin [Sigma, St. Louis, Mo., USA] was dissolved in phosphate saline (PBS) (50 mM sodium biphosphate, 100 mM sodium chloride), pH 7.0, bovine alpha-lactalbumin [Sigma] in 50 mM sodium phosphate, 100 mM sodium chloride and 2 mM EDTA, pH 6.2, chicken egg white lysozyme [Sigma] in 100 mM Tris, 1 mM EDTA, pH 8.2, human acidic fibroblast growth factor (FGF-1) in 6.2 mM sodium biphosphate, 120 mM sodium chloride, pH 7.2, porcine somatotropin (pST) [provided by Pfizer, Inc., Groton, Conn., USA] in 10 mM phosphate, pH 6. 1, human apolactoferrin (HLF) [Sigma] in 20 mM HEPES, 154 mM NaCl, pH 7.4, porcine heart citrate synthase (CS) in 40 mM HEPES, 50 mM KCl, 10 mM (NH4)2SO4 mM potassium acetate, pH 7.8, and yeast alcohol dehydrogenase (ADH) [Sigma] in pH 7.0 PBS. Selection of buffer solutions was based on an extensive series of preliminary studies to obtain appropriate insolubilization kinetics as described below.
(§2) Copper O-phenanthroline (1,10-phenanthroline) was prepared by mixing copper sulfate hexahydrate [Fisher] and o-phenanthroline [Sigma] in a 1:2 ratio. 1 M Dithiothreitol (DTT) was prepared at pH 7.0 PBS. Polyethylene glycol (M.W. 8000, Union Carbide, Danbury, Conn., USA) (PEG) was prepared at 20 mg/mL in 10 mM phosphate, pH 6.1.
(§3) The following compounds were obtained from Sigma and used without further purification: oxalic acid, sodium malonate, succinic acid, glutaric acid, adipic acid, pimelic acid, suberic acid, azelaic acid, guanidine hydrochloride, ammonium formate, beta-alanine, 4-aminobutyric acid, 5-aminovaleric acid, 6-aminocaproic acid, 7-aminoheptanoic acid, hydrazine, ethylenediamine, 1,3-diaminopropane, 1,4-diaminobutane, 1,5-diaminopentane, 1,6-diaminohexane, 1,7-diaminoheptane, Glu-Glu, Glu-Lys, Lys-Lys, diglycine, triglycine, tetraglycine, pentaglycine, and hexaglycine. […] Triglycine and tetraglycine were dissolved in pH 8.6 PBS, while pentaglycine and hexaglycine were dissolved in pH 10.6 PBS.
(§4) Each was either dissolved in pH 7.0 PBS, or pH 6.1 10 mM phosphate, and adjusted to the same pH.
(§5) Protein aggregation was monitored for 1 hour at 360 nm using an HP8453 UV-visible spectrophotometer system [Hewlett Packard, Germany]. […] Insulin (0.25 mg/mL (4.39E-5 M)) aggregation was monitored at 25° C. after addition of potential inhibitors and 20 μL of 1 M DTT (1.27E-4 M). Alpha-lactabumin (0.4 mg/mL (2.82E-5 M)) aggregation was monitored at 37° C. in the presence of 20 μL of 1 M DTT (1.27E-4 M). Lysozyme (0.4 mg/mL (2.86E-5 M)) aggregation was monitored at 25° C. in the presence of 20 μL of 1 M DTT (1.27E-4 M). FGF-1 (50 μg/mL (3.12E-6 M)) aggregation was monitored at 50° C. Porcine somatotropin (1.27 mg/mL (5.76E-5 M)) aggregation was monitored at 60° C. in the presence of PEG 8000 (20 mg/mL) which was included to enhance the protein association process through a simple exclusion volume effect. HLF (0.4 mg/mL (5.23E-6 M)) aggregation was monitored at 43° C. in the presence of 1.27E-4 M DTT. Citrate synthase (96 μg/mL (9.80E-7 M)) aggregation was monitored at45° C. ADH (1 mg/mL (7.14E-6 M)) was monitored at 37° C. following the addition of 7.76E-5 M Cu(OP)2. Aggregation was compared to protein in the absence of the particular dipolar compound. After stirring, experiments were initiated by the addition of proteins followed by stressing reagents to 1 cm pathlength cuvettes employing a seven-position thermostatted sample holder that was cycled at 30-second intervals. Alternatively, a microtiter plate reader was employed under the same conditions in a 96 well format.
(§6) All optical density (OD)360nm versus time results were exported into Excel [Microsoft] for data analysis.

For assay [1], the target named is T2, chicken egg white lysozyme (Gallus gallus, UniProt P00698).
T2 construct: chicken egg white lysozyme [Sigma]; purchased Sigma; host or cells: egg white
The experiment in a line: Lysozyme aggregation (turbidity at 360 nm) induced by DTT. The conditions noted are these: Lysozyme 0.4 mg/mL, 25° C., DTT; compound 1,000×; standard deviation in parenthesis. Here is the method: as §1, §2, §3, §4, §5, §6

A further assay has as its target T3, bovine alpha-lactalbumin (Bos taurus, UniProt P00711).
T3 construct: purchased Sigma
T3 sequence (P00711 20-142): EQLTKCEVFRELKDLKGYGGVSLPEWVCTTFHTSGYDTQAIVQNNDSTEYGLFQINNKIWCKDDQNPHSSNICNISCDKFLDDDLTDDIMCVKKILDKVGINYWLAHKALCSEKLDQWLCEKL
The experiment in a line: Alpha-lactalbumin aggregation (turbidity at 360 nm) induced by DTT. The conditions noted are these: α Lactalbumin 0.4 mg/mL, 37° C., DTT; compound 1,000×; standard deviation in parenthesis. As for the experimental part: as §1, §2, §3, §4, §5, §6

Assay [2] has as its target human acidic fibroblast growth factor (FGF-1) (Homo sapiens, UniProt P05230). Put plainly: FGF-1 thermal aggregation (turbidity at 360 nm). To be noted: FGF-1 50 μg/mL, 50° C.; compound 1,000×; standard deviation in parenthesis. As for the experimental part:
as §1, §3, §4, §5
(§7) All optical density (OD)360nm versus time results were exported into Excel [Microsoft] for data analysis. […] The maximum rate of change in OD versus time plots (r) was used to determine the rate of the reaction from the slope at this point.

Assay [3] concerns the target T4, human apolactoferrin (HLF) (Homo sapiens, UniProt P02788).
T4 construct: purchased Sigma
Put plainly: HLF aggregation (turbidity at 360 nm) induced by DTT. To be noted: HLF 0.4 mg/mL, 43° C., DTT; first HLF column, head 10,000×; standard deviation in parenthesis. Here is the method: as §1, §2, §3, §4, §5, §6

Assay [4] concerns the target T5, porcine heart citrate synthase (CS) (Sus scrofa, UniProt P00889).
T5 construct: porcine heart citrate synthase (CS); from tissue; host or cells: porcine heart
T5 sequence (P00889 28-464): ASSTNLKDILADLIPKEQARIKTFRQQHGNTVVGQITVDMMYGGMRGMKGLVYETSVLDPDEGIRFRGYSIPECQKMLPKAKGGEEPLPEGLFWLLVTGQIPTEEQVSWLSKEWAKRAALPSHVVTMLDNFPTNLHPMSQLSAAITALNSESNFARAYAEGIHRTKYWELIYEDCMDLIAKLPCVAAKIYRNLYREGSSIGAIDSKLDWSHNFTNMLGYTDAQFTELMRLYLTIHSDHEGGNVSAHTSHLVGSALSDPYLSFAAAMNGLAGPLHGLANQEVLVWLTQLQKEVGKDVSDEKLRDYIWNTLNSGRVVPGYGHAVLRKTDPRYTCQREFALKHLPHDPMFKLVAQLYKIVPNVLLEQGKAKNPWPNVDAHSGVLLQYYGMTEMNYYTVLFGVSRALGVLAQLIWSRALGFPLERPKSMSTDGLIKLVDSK
Put plainly: Citrate synthase thermal aggregation (turbidity at 360 nm). The conditions noted are these: CS 96 μg/mL, 45° C.; compound 1,000X; standard deviation in parenthesis. Here is the method:
as §1, §3, §4, §5, §7

For assay [5], the target named is T6, yeast alcohol dehydrogenase (ADH) (Saccharomyces cerevisiae, UniProt P00330).
T6 construct: purchased Sigma
T6 sequence (P00330 2-348 limits assumed): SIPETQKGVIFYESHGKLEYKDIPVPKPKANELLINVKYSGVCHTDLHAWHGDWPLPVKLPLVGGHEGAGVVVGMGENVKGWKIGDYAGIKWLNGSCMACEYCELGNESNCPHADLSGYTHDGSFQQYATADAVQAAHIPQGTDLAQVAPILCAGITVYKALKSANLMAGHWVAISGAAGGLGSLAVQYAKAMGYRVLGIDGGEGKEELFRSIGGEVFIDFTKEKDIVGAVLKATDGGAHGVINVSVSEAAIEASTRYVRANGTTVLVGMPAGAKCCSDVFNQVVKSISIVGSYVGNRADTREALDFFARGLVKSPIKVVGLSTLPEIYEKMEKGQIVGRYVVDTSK
Put plainly: ADH oxidation-induced aggregation (turbidity at 360 nm), Cu(OP)2. To be noted: ADH 1 mg/mL, 37° C., Cu(OP)2; compound 1,000X; standard deviation in parenthesis. As for the experimental part:
as §1, §2, §3, §4, §5, §6

In assay [6] the target is T7, porcine somatotropin (pST) (Sus scrofa, UniProt P01248).
T7 construct: purchased Pfizer, Inc., Groton, Conn., USA (provided, not bought)
T7 sequence (P01248 27-216): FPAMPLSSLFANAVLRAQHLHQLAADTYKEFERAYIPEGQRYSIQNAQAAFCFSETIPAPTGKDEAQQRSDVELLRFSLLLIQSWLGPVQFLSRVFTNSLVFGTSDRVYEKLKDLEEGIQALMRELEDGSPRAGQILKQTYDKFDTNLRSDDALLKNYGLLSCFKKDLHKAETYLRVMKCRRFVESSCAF
Put plainly: Porcine somatotropin aggregation (turbidity at 360 nm) with PEG 8000. The conditions noted are these: pST 1.27 mg/mL, 60° C., compound 100X, standard deviation in parenthesis. Here is the method:
as §1, §2, §3, §4, §5, §6

human acidic fibroblast growth factor (FGF-1), sequence (P05230 whole entry): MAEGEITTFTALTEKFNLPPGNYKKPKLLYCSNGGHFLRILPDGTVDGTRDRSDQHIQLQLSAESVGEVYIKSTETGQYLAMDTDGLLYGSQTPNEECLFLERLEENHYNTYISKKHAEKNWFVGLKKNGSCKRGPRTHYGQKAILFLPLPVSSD
T4 sequence (P02788 20-710): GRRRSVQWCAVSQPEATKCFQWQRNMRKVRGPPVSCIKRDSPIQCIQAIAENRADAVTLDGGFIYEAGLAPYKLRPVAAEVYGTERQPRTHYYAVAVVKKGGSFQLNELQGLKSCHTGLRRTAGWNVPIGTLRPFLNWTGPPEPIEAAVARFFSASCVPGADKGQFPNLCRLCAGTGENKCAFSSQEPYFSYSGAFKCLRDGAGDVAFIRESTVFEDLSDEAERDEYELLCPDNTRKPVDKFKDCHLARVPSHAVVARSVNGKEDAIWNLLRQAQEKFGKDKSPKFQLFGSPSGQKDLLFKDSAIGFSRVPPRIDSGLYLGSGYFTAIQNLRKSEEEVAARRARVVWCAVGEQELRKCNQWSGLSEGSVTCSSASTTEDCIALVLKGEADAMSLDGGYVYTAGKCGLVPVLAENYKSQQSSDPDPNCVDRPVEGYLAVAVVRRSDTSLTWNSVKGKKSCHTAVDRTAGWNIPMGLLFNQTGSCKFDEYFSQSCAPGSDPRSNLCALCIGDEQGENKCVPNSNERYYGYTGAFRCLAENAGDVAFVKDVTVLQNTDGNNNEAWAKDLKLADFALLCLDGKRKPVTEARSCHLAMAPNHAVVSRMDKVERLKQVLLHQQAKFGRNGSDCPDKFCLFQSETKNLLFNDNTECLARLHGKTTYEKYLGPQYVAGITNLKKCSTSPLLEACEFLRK
T2 sequence (P00698 19-147): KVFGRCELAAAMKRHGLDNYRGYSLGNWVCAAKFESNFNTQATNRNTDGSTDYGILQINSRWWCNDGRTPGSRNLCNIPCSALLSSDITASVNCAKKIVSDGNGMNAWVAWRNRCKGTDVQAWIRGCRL
T1 sequence (P01317 25-54 limits assumed): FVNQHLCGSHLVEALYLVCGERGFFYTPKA
T1 sequence (P01317 85-105 limits assumed): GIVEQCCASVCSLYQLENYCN

As to “^+NH3-(Lys)^+-(Gly)n-(Glu)^−-COO^− [KGGE]”, the inhibition index at Bovine insulin is 1.0 (0.3); in assay [1], 2.6 (0.4); at bovine alpha-lactalbumin, 0.5 (0.2); in assay [2], 1.2 (0.2); in assay [3], 0.7 (0.1); in assay [4] it was 1.4 (0.4). Also, the inhibition index in assay [5] is given as 0.8 (0.1); in assay [6] it was 0.6 (0.1).

Regarding “^+NH3-(Lys)^+-(Gly)n-(Glu)^−-COO^− [KGGGE]”, the inhibition index is listed as 0.8 (0.1) at Bovine insulin; 3.4 (0.1) in assay [1]; 0.6 (0.1) at bovine alpha-lactalbumin; 1.9 (0.2) in assay [2]; 0.8 (0.1) in assay [3]; 1.5 (0.1) in assay [4]. Moreover, the inhibition index in assay [5] is on record as 1.2 (0.1); in assay [6] it was 0.6 (0.1).

With “^+NH3-(Lys)^+-(Gly)n-(Glu)^−-COO^− [KGGGGE]”, the inhibition index on Bovine insulin is 1.0 (0.1); in assay [1], 1.9 (0.5); at bovine alpha-lactalbumin, 0.5 (0.1); in assay [2], 1.9 (0.4); in assay [3], 0.8 (0.1); in assay [4], 1.8 (0.2). The inhibition index in assay [5] is recorded as 1.4 (0.1); in assay [6] it was 0.6 (0.1).

As to “^+NH3-(Lys)^+-(Gly)n-(Lys)^+-CONH2 [^+NH3—(K)^+—(G)2—(K)^+—CONH2]”, the inhibition index is on record as 1.8 (0.1) on Bovine insulin; 0.4 (0.1) in assay [1]; 3.3 (0.9) at bovine alpha-lactalbumin; 1.8 (0.3) in assay [2]; 1.3 (0.1) in assay [3]; 0.7 (0.2) in assay [4]. Moreover, the inhibition index in assay [5] is 0.8 (0.1); in assay [6], 1.2 (0.2).

Turning to “^+NH3-(Lys)^+-(Gly)n-(Lys)^+-CONH2 [^+NH3—(K)^+—(G)4—(K)^+—CONH2]”, the inhibition index is on record as 1.6 (0.3) on Bovine insulin; 1.4 (0.5) in assay [1]; 1.4 (0.3) at bovine alpha-lactalbumin; 2.0 (1.0) in assay [2]; 1.9 (0.2) in assay [3]; 0.8 (0.2) in assay [4]. Further, the inhibition index is listed as 1.5 (0.3) in assay [5] and 0.9 (0.0) in assay [6].
